According to patent US12433936B2, “High-purity adrenocorticotropic hormone analogue and a large-scale preparation method thereof” (Nanjing Hanxin Pharmaceutical Technology Co., Ltd., priority 2021, dated 2025):
No end group written: not given here.

Columns and labels:
[1] = Study of stability, packed samples stored at 2-8° C. for 6 months; type: physicochemical; conditions: for Conclusion: Character / Conclusion: Moisture / Conclusion: Polymer / Conclusion: Related substances (maximum single impurity) / Conclusion: The purity of chromatographic: up to 6 months
Description: The samples prepared in example 8 were packed in double-layer medical low-density polyethylene bags and a layer of aluminum-plastic composite bags and stored at 2-8° C. for evaluation at 1, 2, 3 and 6 months respectively.
The samples prepared in example 9 were packed in double-layer medical low-density polyethylene bags and a layer of aluminum-plastic composite bags and stored at 2-8° C. for evaluation at 1, 2, 3 and 6 months respectively.

[2] = biological target: T1, melanocortin receptor 2 (MC2R) (Homo sapiens, UniProt Q01718); assay: Activity in vitro: calcium ion signal in CHO-K1 cells expressing MC2R; type: cell-based; conditions: for Binding ability to MC2R and biological activity (in words) / Bottom / HillSlope / Top / EC50: CHO-K1 cells expressing MC2R; for Bottom / HillSlope / Top: curve fit; for Bottom / HillSlope / Top / EC50: calcium ion signal; for EC50: read-out: EC50 (half inhibitory concentration)
T1 construct: expressed in transfected cells; host or cells: CHO-K1
Description: ACTH was a receptor agonist of melanocortin receptor 2 (MC2R). The combination of ACTH and MC2R could stimulate the signal pathway of the downstream and change the signal factors such as calcium ions and cAMP. The binding ability of ACTH and MC2R was determined by detecting calcium ion signals, and then the cell activity of ACTH in vitro was judged.
The samples in example 8 and example 10 were taken for activity study in vitro. CHO-K1 cells expressing MC2R were cultured in 10 cm vessels and stored at 37° C. and 5% CO2.

[3] = test system: infantile spasticity (IS) rat model; assay: Incubation period of spasticity in infantile spasticity (IS) rat model (betamethasone/NMDA); type: in vivo, Sprague Dawley (SD) rats
Description: (1) Method: To investigate the effect of SEQ ID NO.4 on the incubation period of spasticity in infantile spasticity (IS) rat model.
Incubation period: Time from NMDA injection to onset of spasticity (time is measured in units of seconds).
Sham group: Sprague Dawley (SD) rats were intraperitoneally injected with saline (10 mL/kg each time) at 9:00 am and 19:00 pm respectively on the 15th day of pregnancy, and the neonatal rats (n=12) were intraperitoneally injected with saline of the same volume as the drug group on the 15th day after birth. Model group (IS group): SD rats were intraperitoneally injected with betamethasone (0.4 mg/kg each time) at 9:00 am and 19:00 pm respectively on the 15th day of pregnancy. The neonatal rats (n=12) were intraperitoneally injected with N-methyl-D-aspartic acid (NMDA, 15 mg/kg) at 15:30 pm on the 15th day after birth to establish infant spasticity (neonatal spasticity) rat model, and the incubation period from NMDA injection to spasticity was recorded. […] After the second injection of SEQ ID NO.4 for 30 minutes (i.e. 15:30 pm), NMDA (15 mg/kg) was intraperitoneally injected to establish infant spasticity rat model, and the incubation period from NMDA injection to spasticity was recorded.

hERG = hERG (Homo sapiens, UniProt Q12809); assay: in vitro; conditions: human
Excerpt: (§1) The cardiac […] toxicity of drugs was judged by detecting the affinity between drugs and heart receptor protein (hERG) in vitro.

[4] = biological target: heart receptor protein (hERG) (Homo sapiens, UniProt Q12809); assay: in vitro
Excerpt: as §1

T1 sequence (Q01718 whole entry, species assumed): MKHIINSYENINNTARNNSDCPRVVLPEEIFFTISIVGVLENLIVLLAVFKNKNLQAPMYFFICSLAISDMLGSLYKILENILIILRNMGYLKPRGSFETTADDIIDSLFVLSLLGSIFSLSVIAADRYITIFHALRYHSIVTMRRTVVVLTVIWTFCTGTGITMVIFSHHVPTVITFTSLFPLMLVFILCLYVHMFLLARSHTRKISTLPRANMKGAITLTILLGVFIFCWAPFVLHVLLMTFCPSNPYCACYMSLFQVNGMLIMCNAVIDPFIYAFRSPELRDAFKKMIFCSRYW
T1 sequence (Q8TCY5 whole entry partner, species assumed): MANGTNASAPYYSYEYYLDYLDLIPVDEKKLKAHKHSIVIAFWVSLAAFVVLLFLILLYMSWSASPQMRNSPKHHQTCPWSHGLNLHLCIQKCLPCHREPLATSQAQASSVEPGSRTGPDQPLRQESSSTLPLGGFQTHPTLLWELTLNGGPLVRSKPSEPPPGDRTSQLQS
heart receptor protein (hERG), sequence (Q12809 whole entry): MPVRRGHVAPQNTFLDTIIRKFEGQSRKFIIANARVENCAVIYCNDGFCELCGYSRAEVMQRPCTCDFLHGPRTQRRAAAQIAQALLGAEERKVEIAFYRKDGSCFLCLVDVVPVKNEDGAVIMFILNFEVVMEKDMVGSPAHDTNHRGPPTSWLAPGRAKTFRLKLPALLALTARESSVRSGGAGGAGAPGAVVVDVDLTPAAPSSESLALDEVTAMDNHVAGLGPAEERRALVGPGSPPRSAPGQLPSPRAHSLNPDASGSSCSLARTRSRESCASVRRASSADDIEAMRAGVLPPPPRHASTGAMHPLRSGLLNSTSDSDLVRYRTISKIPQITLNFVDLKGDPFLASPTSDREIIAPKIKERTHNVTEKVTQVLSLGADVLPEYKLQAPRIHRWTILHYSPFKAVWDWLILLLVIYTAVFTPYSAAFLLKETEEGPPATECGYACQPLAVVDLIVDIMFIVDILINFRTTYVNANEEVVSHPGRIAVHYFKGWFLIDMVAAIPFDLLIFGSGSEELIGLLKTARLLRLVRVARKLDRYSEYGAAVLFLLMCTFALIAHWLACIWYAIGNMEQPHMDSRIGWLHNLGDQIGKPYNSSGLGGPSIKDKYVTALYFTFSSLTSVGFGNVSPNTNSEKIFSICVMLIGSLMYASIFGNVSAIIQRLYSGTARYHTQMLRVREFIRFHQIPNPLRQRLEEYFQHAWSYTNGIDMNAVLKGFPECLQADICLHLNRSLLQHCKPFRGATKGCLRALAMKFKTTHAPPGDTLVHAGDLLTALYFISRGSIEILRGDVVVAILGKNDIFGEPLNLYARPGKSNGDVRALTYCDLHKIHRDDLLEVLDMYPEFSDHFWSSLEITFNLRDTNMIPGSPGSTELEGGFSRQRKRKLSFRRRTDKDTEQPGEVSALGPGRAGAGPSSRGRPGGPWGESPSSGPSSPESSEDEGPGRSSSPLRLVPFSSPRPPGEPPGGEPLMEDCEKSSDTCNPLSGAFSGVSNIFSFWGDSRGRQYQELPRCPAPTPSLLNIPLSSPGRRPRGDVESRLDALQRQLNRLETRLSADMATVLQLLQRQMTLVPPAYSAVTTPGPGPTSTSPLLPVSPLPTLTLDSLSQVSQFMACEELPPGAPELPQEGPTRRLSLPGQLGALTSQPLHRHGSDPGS
hERG, sequence (Q12809 whole entry): as above

Substance: H-SYSMEHFRWGKPVGKKRRPVKVYPNGAEDESAEAFPLEF-OH [Example 8]
- Character (Visual) ([1]; 2-8° C., 1 month): White
- Moisture, Karl Fischer ([1]; 2-8° C., 1 month): 7.3%
- Polymer (impurity with molecular weight greater than the peptide), HPLC ([1]; 2-8° C., 1 month): 0.05%
- Related substances (maximum single impurity), HPLC ([1]; 2-8° C., 1 month): 0.17%
- Related substances (total impurities), HPLC ([1]; 2-8° C., 1 month): 0.29%
- The purity of chromatographic, HPLC ([1]; 2-8° C., 1 month): 99.71%
- Character (Visual) ([1]; 2-8° C., 2 months): White
- Moisture, Karl Fischer ([1]; 2-8° C., 2 months): 7.5%
- Polymer (impurity with molecular weight greater than the peptide), HPLC ([1]; 2-8° C., 2 months): 0.03%
- Related substances (maximum single impurity), HPLC ([1]; 2-8° C., 2 months): 0.17%
- Related substances (total impurities), HPLC ([1]; 2-8° C., 2 months): 0.29%
- The purity of chromatographic, HPLC ([1]; 2-8° C., 2 months): 99.71%
- Character (Visual) ([1]; 2-8° C., 3 months): White
- Moisture, Karl Fischer ([1]; 2-8° C., 3 months): 8.4%
- Polymer (impurity with molecular weight greater than the peptide), HPLC ([1]; 2-8° C., 3 months): 0.06%
- Related substances (maximum single impurity), HPLC ([1]; 2-8° C., 3 months): 0.16%
- Related substances (total impurities), HPLC ([1]; 2-8° C., 3 months): 0.38%
- The purity of chromatographic, HPLC ([1]; 2-8° C., 3 months): 99.62%
- Character (Visual) ([1]; 2-8° C., 6 months): White
- Moisture, Karl Fischer ([1]; 2-8° C., 6 months): 8.3%
- Polymer (impurity with molecular weight greater than the peptide), HPLC ([1]; 2-8° C., 6 months): 0.04%
- Related substances (maximum single impurity), HPLC ([1]; 2-8° C., 6 months): 0.11%
- Related substances (total impurities), HPLC ([1]; 2-8° C., 6 months): 0.39%
- The purity of chromatographic, HPLC ([1]; 2-8° C., 6 months): 99.61%
- Conclusion: Character ([1]; 2-8° C.): Qualified
- Conclusion: Moisture ([1]; 2-8° C.): Qualified
- Conclusion: Polymer ([1]; 2-8° C.): Qualified
- Conclusion: Related substances (maximum single impurity) ([1]; 2-8° C.): Qualified
- Conclusion: The purity of chromatographic ([1]; 2-8° C.): Qualified
- Character (Visual) ([1]; Start): White
- Moisture, Karl Fischer ([1]; Start): 5.0%
- Polymer (impurity with molecular weight greater than the peptide), HPLC ([1]; Start): 0.03%
- Related substances (maximum single impurity), HPLC ([1]; Start): 0.07%
- Related substances (total impurities), HPLC ([1]; Start): 0.13%
- The purity of chromatographic, HPLC ([1]; Start): 99.88%
- Binding ability to MC2R and biological activity (in words) [2]: had binding ability to melanocortin receptor 2 (MC2R) and showed biological activity
- Bottom [2]: −2.739
- HillSlope [2]: 0.9745
- Top [2]: 100.9
- Activity of high-purity ACTH relative to low-purity ACTH ([2]; ratio of EC50 values): 1.6 times

Substance: H-SYSMEHFRWGKPVGKKRRPVKVYPNGAEDESAEAFPLEF-OH [Example 10, reference compound]
- Binding ability to MC2R and biological activity (in words) [2]: had binding ability to melanocortin receptor 2 (MC2R) and showed biological activity
- Bottom [2]: −1.846
- HillSlope [2]: 1.249
- Top [2]: 94.88

Substance: SYSMEHFRWGKPVGKKRRPVKVYPDGAEDESAEAFPLEF (also: deamidated at N25 (given as D), Asp or isoAsp not given here) [Example 9]
- Character (Visual) ([1]; 2-8° C., 1 month): White
- Moisture, Karl Fischer ([1]; 2-8° C., 1 month): 7.5%
- Polymer (impurity with molecular weight greater than the peptide), HPLC ([1]; 2-8° C., 1 month): 0.04%
- Related substances (maximum single impurity), HPLC ([1]; 2-8° C., 1 month): 0.24%
- Related substances (total impurities), HPLC ([1]; 2-8° C., 1 month): 0.42%
- The purity of chromatographic, HPLC ([1]; 2-8° C., 1 month): 99.58%
- Character (Visual) ([1]; 2-8° C., 2 months): White
- Moisture, Karl Fischer ([1]; 2-8° C., 2 months): 7.6%
- Polymer (impurity with molecular weight greater than the peptide), HPLC ([1]; 2-8° C., 2 months): 0.05%
- Related substances (maximum single impurity), HPLC ([1]; 2-8° C., 2 months): 0.17%
- Related substances (total impurities), HPLC ([1]; 2-8° C., 2 months): 0.43%
- The purity of chromatographic, HPLC ([1]; 2-8° C., 2 months): 99.57%
- Character (Visual) ([1]; 2-8° C., 3 months): White
- Moisture, Karl Fischer ([1]; 2-8° C., 3 months): 8.5%
- Polymer (impurity with molecular weight greater than the peptide), HPLC ([1]; 2-8° C., 3 months): 0.06%
- Related substances (maximum single impurity), HPLC ([1]; 2-8° C., 3 months): 0.27%
- Related substances (total impurities), HPLC ([1]; 2-8° C., 3 months): 0.46%
- The purity of chromatographic, HPLC ([1]; 2-8° C., 3 months): 99.54%
- Character (Visual) ([1]; 2-8° C., 6 months): White
- Moisture, Karl Fischer ([1]; 2-8° C., 6 months): 8.6%
- Polymer (impurity with molecular weight greater than the peptide), HPLC ([1]; 2-8° C., 6 months): 0.06%
- Related substances (maximum single impurity), HPLC ([1]; 2-8° C., 6 months): 0.10%
- Related substances (total impurities), HPLC ([1]; 2-8° C., 6 months): 0.49%
- Stability under the storage condition (in words) ([1]; 2-8° C., 6 months): stable
- The purity of chromatographic, HPLC ([1]; 2-8° C., 6 months): 99.51%
- Conclusion: Character ([1]; 2-8° C.): Qualified
- Conclusion: Moisture ([1]; 2-8° C.): Qualified
- Conclusion: Polymer ([1]; 2-8° C.): Qualified
- Conclusion: Related substances (maximum single impurity) ([1]; 2-8° C.): Qualified
- Conclusion: The purity of chromatographic ([1]; 2-8° C.): Qualified
- Character (Visual) ([1]; Start): White
- Moisture, Karl Fischer ([1]; Start): 5.2%
- Polymer (impurity with molecular weight greater than the peptide), HPLC ([1]; Start): 0.03%
- Related substances (maximum single impurity), HPLC ([1]; Start): 0.16%
- Related substances (total impurities), HPLC ([1]; Start): 0.42%
- The purity of chromatographic, HPLC ([1]; Start): 99.58%
- Incubation period of spasticity vs IS group ([3]; high-dose group 0.28 U/g i.p. twice, neonatal rats day 15, P<0.0001): significantly prolong
- Incubation period of spasticity vs IS group ([3]; low-dose group 0.01 U/g i.p. twice, neonatal rats day 15, p<0.001): significantly prolong

Substance: SYSMEHFRWGKPVGKKRRPVKVYPNGAEDESAEAFPLEF [Example 8]
- Stability under the storage condition (in words) ([1]; 2-8° C., 6 months): stable
- EC50 [2]: 180 nM
- inhibition at 10000 nM (hERG): -1.28%
- Cardiac metabolic toxicity (in words) [4]: no cardiac metabolic toxicity
- IC50 [4]: > 10000 nM

Substance: SYSMEHFRWGKPVGKKRRPVKVYPNGAEDESAEAFPLEF [Example 10, reference compound]
- EC50 [2]: 288 nM
- Cardiac metabolic toxicity (in words) [4]: no cardiac metabolic toxicity
